Experimental data reported in ChEMBL document CHEMBL4706688 (J Med Chem, 2021).
pIC50: −log10 of the molar value.

Columns and labels:
[1] = cells; type: functional, tissue-based, UKE-1; conditions: Homo sapiens, UKE1, 72 h
[2] = target: T1, Tyrosine-protein kinase JAK2 (Homo sapiens, UniProt O60674); conditions: HEK293F, dose 100.0 µM
[3] = target: T1, Tyrosine-protein kinase JAK2; experiment: biochemical

T1 sequence (O60674 whole entry): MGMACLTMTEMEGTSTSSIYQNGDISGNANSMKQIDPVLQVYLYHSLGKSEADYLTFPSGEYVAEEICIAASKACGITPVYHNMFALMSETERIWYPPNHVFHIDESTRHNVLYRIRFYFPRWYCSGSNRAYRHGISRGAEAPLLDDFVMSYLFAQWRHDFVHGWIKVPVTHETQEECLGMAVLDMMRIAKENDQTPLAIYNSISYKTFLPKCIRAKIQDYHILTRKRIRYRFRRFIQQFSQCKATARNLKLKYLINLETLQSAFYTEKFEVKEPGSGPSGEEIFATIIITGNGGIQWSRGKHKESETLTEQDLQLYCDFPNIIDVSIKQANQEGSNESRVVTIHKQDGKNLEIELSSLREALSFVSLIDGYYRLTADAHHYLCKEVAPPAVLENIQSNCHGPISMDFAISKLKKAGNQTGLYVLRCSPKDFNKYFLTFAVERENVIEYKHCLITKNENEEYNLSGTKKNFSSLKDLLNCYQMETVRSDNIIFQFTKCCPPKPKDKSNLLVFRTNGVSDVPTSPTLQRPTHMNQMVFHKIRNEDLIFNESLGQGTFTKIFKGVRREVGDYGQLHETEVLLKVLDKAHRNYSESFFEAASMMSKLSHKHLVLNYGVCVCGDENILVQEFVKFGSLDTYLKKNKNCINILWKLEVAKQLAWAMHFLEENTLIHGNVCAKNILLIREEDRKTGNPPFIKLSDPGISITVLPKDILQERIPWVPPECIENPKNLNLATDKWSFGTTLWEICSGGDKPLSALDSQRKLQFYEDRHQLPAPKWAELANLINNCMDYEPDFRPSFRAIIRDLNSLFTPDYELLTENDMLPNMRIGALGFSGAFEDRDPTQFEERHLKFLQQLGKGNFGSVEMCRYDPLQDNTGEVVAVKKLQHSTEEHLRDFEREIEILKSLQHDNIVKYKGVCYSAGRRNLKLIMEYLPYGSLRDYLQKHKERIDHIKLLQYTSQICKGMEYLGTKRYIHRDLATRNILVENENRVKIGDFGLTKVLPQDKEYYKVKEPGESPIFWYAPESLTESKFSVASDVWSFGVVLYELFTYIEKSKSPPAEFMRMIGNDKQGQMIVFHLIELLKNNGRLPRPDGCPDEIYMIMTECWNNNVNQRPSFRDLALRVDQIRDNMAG

Structure (SMILES)	pIC50 [1]	ΔTm [2]	pIC50 [3]
Cc1cnc(Nc2cc(F)c(C3CCN(C)CC3)c(F)c2)nc1Nc1ccc(F)c(NS(=O)(=O)C(C)(C)C)c1	6.82	3.2 °C	–
N#CC[C@H](C1CCCC1)n1cc(-c2nc(Nc3ccc(C4CCNCC4)cc3)nc3[nH]ccc23)cn1	–	12 °C	–
Cc1cnc(Nc2ccc(C3CCN(C)CC3)c(F)c2)nc1Nc1ccc2c(c1)N(S(=O)(=O)C(C)(C)C)CC2	6.68	4.3 °C	–
Cc1cnc(Nc2ccc(C3CCN(C)CC3)c(F)c2)nc1Nc1ccc(F)c(NS(=O)(=O)C(C)(C)C)c1	6.70	3.1 °C	–
Cc1cnc(Nc2ccc(OCCN3CCCC3)cc2)nc1Nc1cccc(S(=O)(=O)NC(C)(C)C)c1 [FEDRATINIB]	6.18	–	–
N#CCC(C1CCCC1)n1cc(-c2nc(Nc3ccc(C4CCNCC4)cc3)nc3[nH]ccc23)cn1 (racemic)	–	11.8 °C	> 10.30
C=CCCn1cc(-c2nc(Nc3ccc(C4CCNCC4)cc3)nc3[nH]ccc23)cn1	6.21	6.4 °C	–
N#CC[C@@H](C1CCCC1)n1cc(-c2nc(Nc3ccc(C4CCNCC4)cc3)nc3[nH]ccc23)cn1	–	8.3 °C	–
N#CCCn1cc(-c2nc(Nc3ccc(C4CCNCC4)cc3)nc3[nH]ccc23)cn1	5.35	7 °C	–
